Laboratory results from patent US11780830B2, “Triazolone derivatives or salts thereof and pharmaceutical compositions comprising the same” (YUHAN CORPORATION, priority 2018, dated 2023).

Columns and labels:
Assay type in all cases: biochemical
[1] = molecular target: T1, recombinant human MAO-B (monoamine oxidase-B) (Homo sapiens, UniProt P27338); assay: Activity on recombinant human MAO-B, method similar to the VAP-1 assay; details: substrate 1 mM benzylamine; read-out: Inhibitory Activity (IC50, nM) MAO-B
T1 construct: purchased Sigma-Aldrich
T1 sequence (P27338 1-520): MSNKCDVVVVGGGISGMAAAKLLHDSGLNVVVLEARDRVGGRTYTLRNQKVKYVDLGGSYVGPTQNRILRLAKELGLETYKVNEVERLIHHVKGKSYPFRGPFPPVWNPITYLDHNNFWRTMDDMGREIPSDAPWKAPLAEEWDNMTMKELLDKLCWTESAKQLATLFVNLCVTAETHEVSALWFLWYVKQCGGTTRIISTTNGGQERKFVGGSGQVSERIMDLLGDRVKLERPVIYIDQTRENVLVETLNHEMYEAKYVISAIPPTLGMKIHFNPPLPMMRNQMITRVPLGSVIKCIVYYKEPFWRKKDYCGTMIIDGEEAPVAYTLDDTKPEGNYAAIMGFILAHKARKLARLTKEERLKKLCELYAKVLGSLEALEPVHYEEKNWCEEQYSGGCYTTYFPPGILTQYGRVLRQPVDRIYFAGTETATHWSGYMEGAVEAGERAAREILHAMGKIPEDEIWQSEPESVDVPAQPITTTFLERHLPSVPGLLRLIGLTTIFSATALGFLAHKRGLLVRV
Procedure, shortened: (§1)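 First, serially diluted compounds were incubated with recombinant enzyme in 50 mM sodium phosphate, pH 7.4, for 30 min at 37° C. Next, Amplex Red (200 uM), HRP (1 U/mL) and tyramine (0.5 mM, MAO-A) or benzylamine (1 mM, MAO-B) were added. Then fluorescence was monitored over 1-2 h and IC50 fitted.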

[2] = molecular target: T2, recombinant human MAO-A (monoamine oxidase-A) (Homo sapiens, UniProt P21397); assay: Activity on recombinant human MAO-A, method similar to the VAP-1 assay; details: substrate 0.5 mM tyramine; read-out: Inhibitory Activity (IC50, nM) MAO-A
T2 construct: purchased Sigma-Aldrich
T2 sequence (P21397 1-527): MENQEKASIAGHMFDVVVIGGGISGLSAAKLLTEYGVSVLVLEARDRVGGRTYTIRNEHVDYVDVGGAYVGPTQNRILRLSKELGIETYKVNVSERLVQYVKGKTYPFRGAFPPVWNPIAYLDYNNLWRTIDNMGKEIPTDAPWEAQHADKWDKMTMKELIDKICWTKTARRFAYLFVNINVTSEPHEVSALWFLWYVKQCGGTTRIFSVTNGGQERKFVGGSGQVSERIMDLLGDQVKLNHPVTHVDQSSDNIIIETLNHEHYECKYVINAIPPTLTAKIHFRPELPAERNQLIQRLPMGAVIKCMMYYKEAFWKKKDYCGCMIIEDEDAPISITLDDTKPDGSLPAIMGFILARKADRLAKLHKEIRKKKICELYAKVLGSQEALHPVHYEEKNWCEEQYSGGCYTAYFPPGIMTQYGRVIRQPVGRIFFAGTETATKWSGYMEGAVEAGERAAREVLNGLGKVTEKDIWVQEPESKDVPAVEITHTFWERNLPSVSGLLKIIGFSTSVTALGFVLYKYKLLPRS
Procedure, shortened: as §1

recombinant human VAP-1 = molecular target: T3, recombinant human VAP-1 (Homo sapiens, UniProt Q16853); assay: Activity on recombinant human VAP-1, HRP-coupled Amplex Red hydrogen peroxide assay; details: substrate 1 mM benzylamine; compound incubated with enzyme at 37° C. for 30 minutes; pH 7.4; read-out: Inhibitory Activity (IC50, nM) human VAP-1
T3 construct: purchased R&D systems
T3 sequence (Q16853 1-763): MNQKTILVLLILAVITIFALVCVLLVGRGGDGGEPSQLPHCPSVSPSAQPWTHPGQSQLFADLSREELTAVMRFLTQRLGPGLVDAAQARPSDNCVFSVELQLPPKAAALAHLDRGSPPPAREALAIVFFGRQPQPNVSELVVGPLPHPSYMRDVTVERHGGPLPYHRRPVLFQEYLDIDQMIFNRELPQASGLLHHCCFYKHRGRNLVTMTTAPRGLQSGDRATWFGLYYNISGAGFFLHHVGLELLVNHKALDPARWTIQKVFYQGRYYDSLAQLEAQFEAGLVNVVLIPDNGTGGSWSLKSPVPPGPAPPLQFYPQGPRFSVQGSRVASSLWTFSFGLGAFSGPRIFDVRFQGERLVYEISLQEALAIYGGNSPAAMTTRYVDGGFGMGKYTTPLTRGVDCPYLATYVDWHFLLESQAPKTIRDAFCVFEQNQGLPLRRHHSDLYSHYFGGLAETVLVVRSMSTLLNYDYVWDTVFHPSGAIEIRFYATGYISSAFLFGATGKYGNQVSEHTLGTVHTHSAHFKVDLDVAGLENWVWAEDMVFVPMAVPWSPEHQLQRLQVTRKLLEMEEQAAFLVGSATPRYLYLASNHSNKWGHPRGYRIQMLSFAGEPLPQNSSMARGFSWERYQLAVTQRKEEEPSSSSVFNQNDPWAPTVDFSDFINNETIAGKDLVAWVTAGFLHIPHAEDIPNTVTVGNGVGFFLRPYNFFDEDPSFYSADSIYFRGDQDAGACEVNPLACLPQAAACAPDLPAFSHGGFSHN
Procedure, shortened: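 H2O2 generation from 1 mM benzylamine was coupled via 1 U/mL HRP to 200 uM Amplex Red; inhibitors, serially diluted 1:3 over 8 points with under 1% final DMSO, had been preincubated 30 min at 37 °C. IC50 from percentage drop in rate.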

[3] = molecular target: T4, recombinant human DAO (diamine oxidase) (Homo sapiens, UniProt P19801); assay: Activity on recombinant human DAO, method similar to the VAP-1 assay; details: substrate 1 mM putrescine; read-out: Inhibitory Activity (IC50, nM) DAO
T4 construct: purchased R&D systems
T4 sequence (P19801 20-751): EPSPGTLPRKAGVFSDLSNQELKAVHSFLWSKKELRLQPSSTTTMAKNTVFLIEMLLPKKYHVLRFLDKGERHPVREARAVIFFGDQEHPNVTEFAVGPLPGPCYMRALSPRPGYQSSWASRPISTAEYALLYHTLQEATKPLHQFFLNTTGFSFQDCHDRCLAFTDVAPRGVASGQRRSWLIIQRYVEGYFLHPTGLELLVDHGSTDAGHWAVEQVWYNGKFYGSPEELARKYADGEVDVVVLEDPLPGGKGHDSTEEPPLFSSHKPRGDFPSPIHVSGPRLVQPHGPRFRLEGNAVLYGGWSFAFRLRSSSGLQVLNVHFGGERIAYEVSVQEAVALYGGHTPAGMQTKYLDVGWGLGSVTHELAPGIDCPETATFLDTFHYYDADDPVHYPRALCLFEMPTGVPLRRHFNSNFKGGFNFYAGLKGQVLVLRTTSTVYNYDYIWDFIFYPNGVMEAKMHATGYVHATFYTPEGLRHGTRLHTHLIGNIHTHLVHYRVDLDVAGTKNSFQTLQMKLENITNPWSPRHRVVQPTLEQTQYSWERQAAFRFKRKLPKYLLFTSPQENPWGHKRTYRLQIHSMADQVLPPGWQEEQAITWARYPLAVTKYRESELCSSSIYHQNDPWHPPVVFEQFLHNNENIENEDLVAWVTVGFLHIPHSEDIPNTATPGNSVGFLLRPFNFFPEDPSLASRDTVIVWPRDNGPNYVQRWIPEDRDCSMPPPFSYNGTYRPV
Procedure, shortened: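 Inhibition of recombinant human diamine oxidase (DAO, R&D systems) was assessed by the same approach as the VAP-1 assay, using 1 mM putrescine as substrate. Hydrogen peroxide formed was detected through an HRP-coupled Amplex Red reaction yielding fluorescent resorufin, read at 544 nm excitation and 590 nm emission. IC50 values came from four-parameter logistic fitting in GraphPad Prism.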

SMILES	IC50 [1] [nM]	IC50 [2] [nM]	IC50 (recombinant human VAP-1) [nM]	IC50 [3] [nM]
Cc1cc(-c2ccc(Cn3cnn(C/C(=C/F)CN)c3=O)s2)n(C)n1 [Example 158, 2-[(2E)-2-(aminomethyl)-3-fluoroprop-2-en-1-yl]-4-{[5-(1,3-dimethyl-1H-pyrazol-5-yl)thiophen-2-yl]methyl}-2,4-dihydro-3H-1,2,4-triazol-3-one]	430	> 100000	1.9	340
CN1CCC(n2cc(-c3ccc(Cn4cnn(C/C(=C/F)CN)c4=O)s3)cn2)CC1 [Example 159, 2-[(2E)-2-(aminomethyl)-3-fluoroprop-2-en-1-yl]-4-({5-[1-(1-methylpiperidin-4-yl)-1H-pyrazol-4-yl]thiophen-2-yl}methyl)-2,4-dihydro-3H-1,2,4-triazol-3-one]	> 100000	> 100000	4.3	1200
NC/C(=C\F)Cn1ncn(Cc2ccc(-c3ccncc3)s2)c1=O [Example 160, 2-[(2E)-2-(aminomethyl)-3-fluoroprop-2-en-1-yl]-4-{[5-(pyridin-4-yl)thiophen-2-yl]methyl}-2,4-dihydro-3H-1,2,4-triazol-3-one]	51	> 100000	2.2	1100
CC(C)n1nccc1-c1ccc(Cn2cnn(C/C(=C/F)CN)c2=O)s1 [Example 161, 2-[(2E)-2-(aminomethyl)-3-fluoroprop-2-en-1-yl]-4-({5-[1-(propan-2-yl)-1H-pyrazol-5-yl]thiophen-2-yl}methyl)-2,4-dihydro-3H-1,2,4-triazol-3-one]	15	> 100000	3.7	4300
Cn1nc(C(F)(F)F)cc1-c1ccc(Cn2cnn(C/C(=C/F)CN)c2=O)s1 [Example 162, 2-[(2E)-2-(aminomethyl)-3-fluoroprop-2-en-1-yl]-4-({5-[1-methyl-3-(trifluoromethyl)-1H-pyrazol-5-yl]thiophen-2-yl}methyl)-2,4-dihydro-3H-1,2,4-triazol-3-one]	250	> 100000	3.2	250
NC/C(=C\F)Cn1ncn(Cc2ccc(C3=CCNCC3)s2)c1=O [Example 163, 2-[(2E)-2-(aminomethyl)-3-fluoroprop-2-en-1-yl]-4-{[5-(1,2,3,6-tetrahydropyridin-4-yl)thiophen-2-yl]methyl}-2,4-dihydro-3H-1,2,4-triazol-3-one]	5500	> 100000	2.1	300
NC/C(=C\F)Cn1ncn(Cc2ccc(-c3csc(CO)c3)s2)c1=O [Example 164, 2-[(2E)-2-(aminomethyl)-3-fluoroprop-2-en-1-yl]-4-{[5′-(hydroxymethyl)-2,3′-bithiophen-5-yl]methyl}-2,4-dihydro-3H-1,2,4-triazol-3-one]	170	> 100000	2.5	6800
Cc1cscc1-c1ccc(Cn2cnn(C/C(=C/F)CN)c2=O)s1 [Example 165, 2-[(2E)-2-(aminomethyl)-3-fluoroprop-2-en-1-yl]-4-[(4′-methyl-2,3′-bithiophen-5-yl)methyl]-2,4-dihydro-3H-1,2,4-triazol-3-one]	2.8	> 100000	7.5	5300
NC/C(=C\F)Cn1ncn(Cc2ccc(-c3ccc(N)cc3)s2)c1=O [Example 166, 2-[(2E)-2-(aminomethyl)-3-fluoroprop-2-en-1-yl]-4-{[5-(4-aminophenyl)thiophen-2-yl]methyl}-2,4-dihydro-3H-1,2,4-triazol-3-one]	1300	> 100000	7.7	14000
NC/C(=C\F)Cn1ncn(Cc2ccc(-c3cnc(N)nc3)s2)c1=O [Example 167, 2-[(2E)-2-(aminomethyl)-3-fluoroprop-2-en-1-yl]-4-{[5-(2-aminopyrimidin-5-yl)thiophen-2-yl]methyl}-2,4-dihydro-3H-1,2,4-triazol-3-one]	> 10000	> 100000	2.4	1800
NC/C(=C\F)Cn1ncn(Cc2ccc(Cc3ccc(OC(F)(F)F)cc3)s2)c1=O [Example 168, 2-[(2E)-2-(aminomethyl)-3-fluoroprop-2-en-1-yl]-4-({5-[4-(trifluoromethoxy)benzyl]thiophen-2-yl}methyl)-2,4-dihydro-3H-1,2,4-triazol-3-one]	340	> 100000	12	4500
NC/C(=C\F)Cn1ncn(Cc2ccc(-c3ccc(CO)cc3)s2)c1=O [Example 169, 2-[(2E)-2-(aminomethyl)-3-fluoroprop-2-en-1-yl]-4-({5-[4-(hydroxymethyl)phenyl]thiophen-2-yl}methyl)-2,4-dihydro-3H-1,2,4-triazol-3-one]	930	> 100000	3.3	12000
